Assays:
[1] = tested on: castrate-resistant metastatic prostate cancer; assay: Example 3: docetaxel course, with or without rectal dehydroequol as adjuvant, in castrate-resistant metastatic prostate cancer; format: in vivo, human; settings: stated objective; dehydroequol 400 mg once daily rectally for 7 days as adjuvant to docetaxel 175 mg/m2 iv every 21 days
Protocol: A patient with castrate-resistant metastatic prostate cancer with secondary cancers in several inguinal lymph nodes and multiple bones (thoracic vertebrae, femur, ribs, humerus). Having progressed on hormone-ablation therapy, the standard next step for this patient is to receive a course of treatment with docetaxel involving an intravenous injection of a dosage of […] over 3 hours every 21 days for 18 weeks.
Dehydroequol is administered as adjuvant therapy at a dosage of 400 mg once daily for 7 consecutive days commencing on the day prior to the administration of docetaxel and repeated for the duration of the course of docetaxel therapy. The dehydroequol is administered rectally in a solid 2 gram suppository dosage form in a theobroma oil base.

[2] = tested on: late-stage ovarian cancer; assay: Example 2: rectal dehydroequol with intravenous carboplatin in a patient with platin- and taxane-refractory late-stage ovarian cancer; format: in vivo, human; settings: stated objective; dehydroequol 400 mg every 12 hours rectally for 7 days + carboplatin AUC 6 iv on Day 2, every 28 days, 6 courses
Description: A patient with late-stage ovarian cancer. Previously treated intravenously with multiple rounds of carboplatin and paclitaxel and now displaying multi-drug resistance by showing disease progression while undergoing combined therapy with carboplatin/paclitaxel. This patient meets the definition of platin- and taxane-refractory disease.
The patient is showing multiple tumours throughout the abdominal cavity and is suffering failing health although still considered sufficiently robust to withstand further cytotoxic chemotherapy were it considered likely to provide a benefit.
The patient is treated with 400 mg of dehydroequol every 12 hours for 7 consecutive days. The dehydroequol is administered rectally in a solid 2 gram suppository dosage form in a theobroma oil base.
Carboplatin is injected intravenously at a dosage equivalent to an AUC of 6 on Day 2 of the 7-day dehydroequol treatment regimen.
This regimen is repeated every 28 days for a total of 6 courses of treatment.

[3] = tested on: castrate-resistant metastatic prostate cancer; settings: docetaxel alone, standard course; response = complete remission, partial remission or no disease progression; cited from earlier work

| Compound | response rate (objective) [1] | prolong the survival of the patient (additional) [2] | response rate (reported) [3] |
| --- | --- | --- | --- |
| Oc1ccc(C2=Cc3ccc(O)cc3OC2)cc1 [dehydroequol, 2H-1-Benzopyran-7-0,1,3-(4-hydroxyphenyl)] | 40-100% | 12 months |  |
| CC(=O)O[C@@]12CO[C@@H]1C[C@H](O)[C@@]1(C)C(=O)[C@H](O)C3=C(C)[C@@H](OC(=O)[C@H](O)[C@@H](NC(=O)OC(C)(C)C)c4ccccc4)C[C@@](O)([C@@H](OC(=O)c4ccccc4)[C@H]21)C3(C)C [docetaxel] |  |  | 30% |
